PubChem BioAssay AID1963854 (Molecular Pharmacology Branch, DTP, NCI, 2024)
Where “and” joins values, the source holds several entries; their conditions need not be identical. Equal values may be shown once.

Tested on: 186277-243-T-J2-PDC complex spheroid viability
Assay: Anticancer human tumor 186277-243-T-J2-PDC patient-derived colon adenocarcinoma cell line growth inhibition [POLQ]
Conditions: for viability, T/C: stronger effect = lower value; active = viability on the fitted dose curve at most 10% of control; inactive = the rest
Experimental: Multicellular complex tumor spheroid response to Polymerase (POL) inhibitors (novobiocin, ART-558, RP6685) in combination with a variety of drugs and investigational agents in selected tumor cell lines
The POL inhibitors (novobiocin, ART-558, and RP6685) were evaluated both individually and in combination with standard of care and investigational anticancer small molecules within a complex spheroid model of solid tumors. . Complex spheroids include a stromal component modeled by human endothelial cells (HUVEC) and fibroblasts modeled by human mesenchymal stem cells (MSCs). The concentration ranges selected for each drug and investigational agent were based upon clinically achievable concentrations if the clinical Cmax of the agent was known.
Compounds. The drugs and investigational agents: novobiocin (NSC847541), ART-558 (NSC835418), RP-6685 (NSC848927), peposertib (NSC802822), ceralasertib (NSC780249), elimusertib (NSC800525), camonsertib (NSC841442), AZD-1390 (NSC803789), olaparib (NSC753686), talazoparib (NSC767125), rucaparib (NSC756644), sotorasib (NSC818433), MRTX-1133 (NSC836407), SN-38 (NSC673596), topotecan (NSC609699), epotoside (NSC141540), doxorubicin (NSC123127), gemcitabine (NSC613327), 5-fluorouracil (NSC19893), paclitaxel (NSC125973), vemurafenib (NSC761431), MSA-2 (NSC828583), SN-011 (NSC837082), adavosertib (NSC754352), prexasertib (NSC758257), carboplatin (NSC241240) and oxaliplatin (NSC266046), were obtained from the National Cancer Institute (NCI) Developmental Therapeutics Program Chemical Repository (21). The FDA-approved anticancer drug set is available from the Developmental Therapeutics Program at https://dtp.cancer.gov/organization/dscb/obtaining/. […] The stock solutions were prepared in dimethyl sulfoxide (DMSO, Sigma-Aldrich, St. Louis, MO, cat. D2650), except for the platinum compounds which were prepared in saline (Quality Biological, Gaithersburg, MD, cat. 114-055-101), at 800-fold the tested concentration and stored at -70 degrees C prior to their use. All drugs and investigational agents were tested over a range starting from a high concentration at or near the clinical Cmax and decreasing in half-log increments. If the clinical Cmax for an agent had not been determined, the highest concentration tested was 10 microM, except for SN-38, which was tested at a high concentration of 1 microM.
Cell Culture. All cells were maintained in an incubator at 37 degrees C and 5% CO2 with 95% humidity. The PDC lines were cultured according to standard operating procedures established by the NCI PDMR (https://pdmr.cancer.gov). Table 3 of the manuscript, lists the cell lines along with the number of the three cell types plated to form the mct-spheroids and media for tumor cell growth. After thawing, all PDC lines, except 997537-175-T-J1-PDC and 415267-285-R-J2-PDC, were cultured in Matrigel-coated flasks prepared with a working solution of 1X Ham's F-12 nutrient mix, without supplementation (Thermo Fisher Scientific, cat. 11765054), 100 U/mL penicillin-streptomycin (Thermo Fisher Scientific, cat. 15140122), and 2.5% Matrigel (Corning Inc., Corning, NY, cat. 354248) for the first three passages. The two PDC lines 997537-175-T-J1-PDC and 415267-285-R-J2-PDC were cultured on uncoated flasks. The 857933-349-R-J2-PDC line was cultured in 6C/Colon 1B media containing advanced DMEM/F-12 (Thermo Fisher Scientific, cat. 12634028), 10 mM HEPES (Thermo Fisher Scientific, cat. 15630080), 1X GlutaMAX supplement (Thermo Fisher Scientific, cat. 35050061), 0.1 mg/mL primocin (InvivoGen, San Diego, CA, cat. ant-pm-2), 10% defined fetal bovine serum, heat inactivated (HyClone Laboratories Inc., Logan, UT, cat. SH30070.03HI), 50% L-WRN conditioned media (ATCC, cat. CRL-3276), 1.25 mM N-Acetyl-L-cysteine (Sigma-Aldrich, cat. A9165), 10 mM nicotinamide (Sigma-Aldrich, cat. N0636), 1X B-27 supplement (Thermo Fisher Scientific, cat. 17504044), 1X N-2 supplement (Thermo Fisher Scientific, cat. […]
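Note: spheroids exposed to compounds for seven days.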

CCCS(=O)(=O)Nc1ccc(F)c(C(=O)c2c[nH]c3ncc(-c4ccc(Cl)cc4)cc23)c1F
inactive: viability, T/C (compound 0.0316 µM) 93.5% and 97.3% and 96.7% | viability, T/C (compound 0.1 µM) 80.9% and 85.4% and 97.5% | viability, T/C (compound 0.316 µM) 92.2% and 94.7% and 93% | viability, T/C (compound 1 µM) 90.7% and 79.6% and 82.2% | viability, T/C (compound 3.16 µM) 82.9% and 100% and 89.3% | viability, T/C (compound 10 µM) 64.4% and 59.1% and 42.5%
> 10 µM and 8.34 µM: IC50 (curve of compound)

CC(C)n1c(=O)n(C)c2cnc3cc(F)c(-c4ccc(OCCCN5CCCCC5)nc4)cc3c21 + COC1C(OC(N)=O)C(O)C(Oc2ccc3c(O)c(NC(=O)c4ccc(O)c(CC=C(C)C)c4)c(=O)oc3c2C)OC1(C)C
inactive: viability, T/C (second compound 0.0316 µM, first compound 0.0316 µM) 104% | viability, T/C (second compound 0.0316 µM, first compound 0.1 µM) 97.4% | viability, T/C (second compound 0.0316 µM, first compound 0.316 µM) 98.1% | viability, T/C (second compound 0.0316 µM, first compound 1 µM) 93.2% | viability, T/C (second compound 0.0316 µM, first compound 3.16 µM) 94.3% | viability, T/C (second compound 0.0316 µM, first compound 10 µM) 116% | viability, T/C (second compound 0.1 µM, first compound 0.0316 µM) 111% | viability, T/C (second compound 0.1 µM, first compound 0.1 µM) 87.2% | viability, T/C (second compound 0.1 µM, first compound 0.316 µM) 103% | viability, T/C (second compound 0.1 µM, first compound 1 µM) 101% | viability, T/C (second compound 0.1 µM, first compound 3.16 µM) 107% | viability, T/C (second compound 0.1 µM, first compound 10 µM) 92.2% | viability, T/C (second compound 0.316 µM, first compound 0.0316 µM) 99.1% | viability, T/C (second compound 0.316 µM, first compound 0.1 µM) 98.3% | viability, T/C (second compound 0.316 µM, first compound 0.316 µM) 96.1% | viability, T/C (second compound 0.316 µM, first compound 1 µM) 97.9% | viability, T/C (second compound 0.316 µM, first compound 3.16 µM) 114% | viability, T/C (second compound 0.316 µM, first compound 10 µM) 108% | viability, T/C (second compound 1 µM, first compound 0.0316 µM) 110% | viability, T/C (second compound 1 µM, first compound 0.1 µM) 93.7% | viability, T/C (second compound 1 µM, first compound 0.316 µM) 86.6% | viability, T/C (second compound 1 µM, first compound 1 µM) 107% | viability, T/C (second compound 1 µM, first compound 3.16 µM) 101% | viability, T/C (second compound 1 µM, first compound 10 µM) 101% | viability, T/C (second compound 3.16 µM, first compound 0.0316 µM) 98.2% | viability, T/C (second compound 3.16 µM, first compound 0.1 µM) 95.2% | viability, T/C (second compound 3.16 µM, first compound 0.316 µM) 105% | viability, T/C (second compound 3.16 µM, first compound 1 µM) 106% | viability, T/C (second compound 3.16 µM, first compound 3.16 µM) 92.5% | viability, T/C (second compound 3.16 µM, first compound 10 µM) 102% | viability, T/C (second compound 10 µM, first compound 0.0316 µM) 102% | viability, T/C (second compound 10 µM, first compound 0.1 µM) 109% | viability, T/C (second compound 10 µM, first compound 0.316 µM) 115% | viability, T/C (second compound 10 µM, first compound 1 µM) 115% | viability, T/C (second compound 10 µM, first compound 3.16 µM) 108% | viability, T/C (second compound 10 µM, first compound 10 µM) 89.8%
> 10 µM: IC50 (curve of first compound, second compound 0.0316 µM) | IC50 (curve of first compound, second compound 0.1 µM) | IC50 (curve of first compound, second compound 0.316 µM) | IC50 (curve of first compound, second compound 1 µM) | IC50 (curve of first compound, second compound 3.16 µM) | IC50 (curve of first compound, second compound 10 µM)

O=C(c1cc(Cc2n[nH]c(=O)c3ccccc23)ccc1F)N1CCN(C(=O)C2CC2)CC1
> 10 µM: IC50 (curve of compound)
inactive: viability, T/C (compound 0.0316 µM) 92.4% and 106% and 120% | viability, T/C (compound 0.1 µM) 98.8% and 100% and 84.5% | viability, T/C (compound 0.316 µM) 103% and 102% and 101% | viability, T/C (compound 1 µM) 107% and 106% and 104% | viability, T/C (compound 3.16 µM) 110% and 111% and 128% | viability, T/C (compound 10 µM) 79.3% and 62% and 111%

CC[C@@]1(O)C(=O)OCc2c1cc1n(c2=O)Cc2cc3c(CN(C)C)c(O)ccc3nc2-1
0.0941 µM and > 0.1 µM and 0.0567 µM: IC50 (curve of compound)
inactive: viability, T/C (compound 0.000316 µM) 96.6% and 87.7% and 89.5% | viability, T/C (compound 0.001 µM) 91.4% and 93.5% and 116% | viability, T/C (compound 0.00316 µM) 112% and 111% and 129% | viability, T/C (compound 0.01 µM) 119% and 125% and 112% | viability, T/C (compound 0.0316 µM) 71.8% and 125% and 61.7% | viability, T/C (compound 0.1 µM) 48.8% and 88.5% and 38.6%

Nc1ccc(C#CCN(C(=O)Cc2ncc(C(F)(F)F)cc2C(F)(F)F)c2ccc(F)cc2)nn1
inactive: viability, T/C (compound 0.0316 µM) 103% [middle of 13 runs] | viability, T/C (compound 0.1 µM) 102% [middle of 13 runs] | viability, T/C (compound 0.316 µM) 98.7% [middle of 13 runs] | viability, T/C (compound 1 µM) 101% [middle of 13 runs] | viability, T/C (compound 3.16 µM) 94.9% [middle of 13 runs]
> 10 µM: IC50 (compound alone, run of 11/06/2023)
